From ChEMBL document CHEMBL4138175, “Newly designed organotin(IV) carboxylates with peptide linkage: Synthesis, structural elucidation, physicochemical characterizations and pharmacological investigations” (Eur J Med Chem, 2018)
Active and inactive are the calls of the source. No cut-off for these calls is given here.

Tests used:
Streptococcus pyogenes [1] = test: Antibacterial activity against Streptococcus pyogenes assessed as zone of inhibition by measuring activity index after 24 to 48 hrs by well diffusion method relative to tetracycline; format: functional, organism-based
[2] = system: Staphylococcus epidermidis; test: Antibacterial activity against Staphylococcus epidermidis assessed as zone of inhibition by measuring activity index after 24 to 48 hrs by well diffusion method relative to tetracycline; format: functional, organism-based
Pseudomonas aeruginosa [3] = test: Antibacterial activity against Pseudomonas aeruginosa assessed as zone of inhibition by measuring activity index after 24 to 48 hrs by well diffusion method relative to ampicillin; format: functional, organism-based
Streptococcus pyogenes [4] = test: Antibacterial activity against Streptococcus pyogenes assessed as zone of inhibition after 24 to 48 hrs by well diffusion method; format: functional
NCI-H157 [5] = test: Cytotoxicity against human NCI-H157 cells at 100 uM after 48 hrs by sulforhodamine B assay; format: functional
NCI-H157 [6] = test: Cytotoxicity against human NCI-H157 cells at 0.1 uM after 48 hrs by sulforhodamine B assay; format: functional
[7] = system: Staphylococcus epidermidis; test: Antibacterial activity against Staphylococcus epidermidis assessed as zone of inhibition after 24 to 48 hrs by well diffusion method; format: functional
Streptococcus pyogenes [8] = test: Antibacterial activity against Streptococcus pyogenes assessed as zone of inhibition by measuring activity index after 24 to 48 hrs by well diffusion method relative to ampicillin; format: functional, organism-based
Serratia marcescens [9] = test: Antibacterial activity against Serratia marcescens assessed as zone of inhibition by measuring activity index after 24 to 48 hrs by well diffusion method relative to amoxicillin; format: functional
Serratia marcescens [10] = test: Antibacterial activity against Serratia marcescens assessed as zone of inhibition after 24 to 48 hrs by well diffusion method; format: functional
Escherichia coli [11] = test: Antibacterial activity against Escherichia coli assessed as zone of inhibition by measuring activity index after 24 to 48 hrs by well diffusion method relative to ampicillin; format: functional, organism-based
Escherichia coli [12] = test: Antibacterial activity against Escherichia coli assessed as zone of inhibition after 24 to 48 hrs by well diffusion method; format: functional
[13] = system: Staphylococcus epidermidis; test: Antibacterial activity against Staphylococcus epidermidis assessed as zone of inhibition by measuring activity index after 24 to 48 hrs by well diffusion method relative to amoxicillin; format: functional, organism-based
Streptococcus pyogenes [14] = test: Antibacterial activity against Streptococcus pyogenes assessed as zone of inhibition by measuring activity index after 24 to 48 hrs by well diffusion method relative to penicillin G; format: functional, organism-based
NCI-H157 [15] = test: Cytotoxicity against human NCI-H157 cells after 48 hrs by sulforhodamine B assay; format: functional, cell-based
Staphylococcus aureus [16] = test: Antibacterial activity against Staphylococcus aureus assessed as zone of inhibition by measuring activity index after 24 to 48 hrs by well diffusion method relative to ampicillin; format: functional, organism-based
Leishmania major [17] = test: Antileishmanial activity against Leishmania major promastigotes at 1 uM after 72 hrs by MTT assay relative to control; format: functional
Escherichia coli [18] = test: Antibacterial activity against Escherichia coli assessed as zone of inhibition by measuring activity index after 24 to 48 hrs by well diffusion method relative to amoxicillin; format: functional, organism-based
NCI-H157 [19] = test: Cytotoxicity against human NCI-H157 cells at 1 uM after 48 hrs by sulforhodamine B assay; format: functional
Klebsiella pneumoniae [20] = test: Antibacterial activity against Klebsiella pneumoniae assessed as zone of inhibition by measuring activity index after 24 to 48 hrs by well diffusion method relative to penicillin G; format: functional, organism-based
NCI-H157 [21] = test: Cytotoxicity against human NCI-H157 cells at 10 uM after 48 hrs by sulforhodamine B assay; format: functional
Leishmania major [22] = test: Antileishmanial activity against Leishmania major promastigotes at 100 uM after 72 hrs by MTT assay relative to control; format: functional
Staphylococcus aureus [23] = test: Antibacterial activity against Staphylococcus aureus assessed as zone of inhibition after 24 to 48 hrs by well diffusion method; format: functional
Klebsiella pneumoniae [24] = test: Antibacterial activity against Klebsiella pneumoniae assessed as zone of inhibition after 24 to 48 hrs by well diffusion method; format: functional
Pseudomonas aeruginosa [25] = test: Antibacterial activity against Pseudomonas aeruginosa assessed as zone of inhibition after 24 to 48 hrs by well diffusion method; format: functional
Leishmania major [26] = test: Antileishmanial activity against Leishmania major promastigotes at 0.1 uM after 72 hrs by MTT assay relative to control; format: functional
Staphylococcus aureus [27] = test: Antibacterial activity against Staphylococcus aureus assessed as zone of inhibition by measuring activity index after 24 to 48 hrs by well diffusion method relative to amoxicillin; format: functional, organism-based
Serratia marcescens [28] = test: Antibacterial activity against Serratia marcescens assessed as zone of inhibition by measuring activity index after 24 to 48 hrs by well diffusion method relative to ampicillin; format: functional
Streptococcus pyogenes [29] = test: Antibacterial activity against Streptococcus pyogenes assessed as zone of inhibition by measuring activity index after 24 to 48 hrs by well diffusion method relative to amoxicillin; format: functional, organism-based
Staphylococcus aureus [30] = test: Antibacterial activity against Staphylococcus aureus assessed as zone of inhibition by measuring activity index after 24 to 48 hrs by well diffusion method relative to tetracycline; format: functional, organism-based
Serratia marcescens [31] = test: Antibacterial activity against Serratia marcescens assessed as zone of inhibition by measuring activity index after 24 to 48 hrs by well diffusion method relative to penicillin G; format: functional
Escherichia coli [32] = test: Antibacterial activity against Escherichia coli assessed as zone of inhibition by measuring activity index after 24 to 48 hrs by well diffusion method relative to penicillin G; format: functional, organism-based
Staphylococcus aureus [33] = test: Antibacterial activity against Staphylococcus aureus assessed as zone of inhibition by measuring activity index after 24 to 48 hrs by well diffusion method relative to penicillin G; format: functional, organism-based
Leishmania major [34] = test: Antileishmanial activity against Leishmania major promastigotes at 10 uM after 72 hrs by MTT assay relative to control; format: functional
Klebsiella pneumoniae [35] = test: Antibacterial activity against Klebsiella pneumoniae assessed as zone of inhibition by measuring activity index after 24 to 48 hrs by well diffusion method relative to tetracycline; format: functional, organism-based
Pseudomonas aeruginosa [36] = test: Antibacterial activity against Pseudomonas aeruginosa assessed as zone of inhibition by measuring activity index after 24 to 48 hrs by well diffusion method relative to amoxicillin; format: functional, organism-based
Pseudomonas aeruginosa [37] = test: Antibacterial activity against Pseudomonas aeruginosa assessed as zone of inhibition by measuring activity index after 24 to 48 hrs by well diffusion method relative to penicillin G; format: functional, organism-based
Klebsiella pneumoniae [38] = test: Antibacterial activity against Klebsiella pneumoniae assessed as zone of inhibition by measuring activity index after 24 to 48 hrs by well diffusion method relative to amoxicillin; format: functional, organism-based
[39] = system: Staphylococcus epidermidis; test: Antibacterial activity against Staphylococcus epidermidis assessed as zone of inhibition by measuring activity index after 24 to 48 hrs by well diffusion method relative to ampicillin; format: functional, organism-based
Pseudomonas aeruginosa [40] = test: Antibacterial activity against Pseudomonas aeruginosa assessed as zone of inhibition by measuring activity index after 24 to 48 hrs by well diffusion method relative to tetracycline; format: functional, organism-based
Klebsiella pneumoniae [41] = test: Antibacterial activity against Klebsiella pneumoniae assessed as zone of inhibition by measuring activity index after 24 to 48 hrs by well diffusion method relative to ampicillin; format: functional, organism-based
DNA [42] = test: Binding affinity to single-stranded DNA (unknown origin) after 10 mins by UV-visible spectrometric method; format: nucleic-acid assay
[43] = system: Staphylococcus epidermidis; test: Antibacterial activity against Staphylococcus epidermidis assessed as zone of inhibition by measuring activity index after 24 to 48 hrs by well diffusion method relative to penicillin G; format: functional, organism-based
Escherichia coli [44] = test: Antibacterial activity against Escherichia coli assessed as zone of inhibition by measuring activity index after 24 to 48 hrs by well diffusion method relative to tetracycline; format: functional
DNA [45] = test: Binding affinity to single-stranded DNA (unknown origin) assessed as red shift up to 72 uM after 10 mins by UV-visible spectrometric method; format: nucleic-acid assay
Serratia marcescens [46] = test: Antibacterial activity against Serratia marcescens assessed as zone of inhibition by measuring activity index after 24 to 48 hrs by well diffusion method relative to tetracycline; format: functional, organism-based

| Substance | Activity index [2] | inhibition zone (IZ) (Streptococcus pyogenes [4]) | Activity (NCI-H157 [5]) | Activity (NCI-H157 [6]) | inhibition zone (IZ) [7] | inhibition zone (IZ) (Serratia marcescens [10]) | inhibition zone (IZ) (Escherichia coli [12]) | Activity index [13] | Activity (NCI-H157 [15]) | Activity (Leishmania major [17]) | Activity (NCI-H157 [19]) | Activity (NCI-H157 [21]) | Activity (Leishmania major [22]) | inhibition zone (IZ) (Staphylococcus aureus [23]) | inhibition zone (IZ) (Klebsiella pneumoniae [24]) | inhibition zone (IZ) (Pseudomonas aeruginosa [25]) | Activity (Leishmania major [26]) | Activity (Leishmania major [34]) | Activity index (Klebsiella pneumoniae [35]) | Activity index (Klebsiella pneumoniae [38]) | other results |
| --- | --- | --- | --- | --- | --- | --- | --- | --- | --- | --- | --- | --- | --- | --- | --- | --- | --- | --- | --- | --- | --- |
| Divinylstannanediyl bis 2-(4-methoxy-2-nitrophenylcarbamoyl)benzoate | 1.42 | inactive | 64.3% | 55.4% | 14.2 mm | 11 mm | inactive | 7.11 | Dose-dependent effect | 48.8% | 58.3% | 61% | 60.9% | inactive | inactive | inactive | 43.3% | 55.4% | – | – | Activity_index (Streptococcus pyogenes [1]): inactive; Activity_index (Pseudomonas aeruginosa [3]): inactive; Activity_index (Streptococcus pyogenes [8]): inactive; Activity index (Serratia marcescens [9]): 1.84; Activity_index (Escherichia coli [11]): inactive; Activity_index (Streptococcus pyogenes [14]): inactive; Activity_index (Staphylococcus aureus [16]): inactive; Activity_index (Escherichia coli [18]): inactive; Activity_index (Klebsiella pneumoniae [20]): inactive; Activity_index (Staphylococcus aureus [27]): inactive; Activity index (Serratia marcescens [28]): 1.37; Activity_index (Streptococcus pyogenes [29]): inactive; Activity_index (Staphylococcus aureus [30]): inactive; Activity index (Serratia marcescens [31]): 1.37; Activity_index (Escherichia coli [32]): inactive; Activity_index (Staphylococcus aureus [33]): inactive |
| (1,10-Phenanthroline) trimethylstannyl 2-(4-methoxy-2-nitrophenylcarbamoyl)benzoate | – | 15 mm | 55.5% | 44% | inactive | 20 mm | 20.7 mm | – | Dose-dependent effect | 57.9% | 47.1% | 52.4% | 52.7% | 5.66 mm | 27.7 mm | 11.3 mm | 56.2% | 58.4% | 1.98 | 4.61 | Activity index (Pseudomonas aeruginosa [36]): 1.89; Activity index (Serratia marcescens [9]): 3.34; Activity index (Pseudomonas aeruginosa [37]): 1.89; Activity_index [39]: inactive; Activity index (Pseudomonas aeruginosa [40]): 1.89; Activity index (Klebsiella pneumoniae [41]): 4.61; K (DNA [42]): 2.5 ×10⁴ /M; Activity_index [43]: inactive; Activity index (Serratia marcescens [28]): 2.5; Activity index (Escherichia coli [44]): 10.3; Activity index (Serratia marcescens [31]): 2.5; Activity (DNA [45]): < 3 nm |
| Tricyclohexylstannyl 2-(4-methoxy-2-nitrophenylcarbamoyl)benzoate | 1.23 | 16.7 mm | 59.3% | 43.6% | 12.3 mm | inactive | inactive | 6.17 | Dose-dependent effect | 58.8% | 50.6% | 54% | 67.8% | inactive | 18.5 mm | 18.7 mm | 55.2% | 63.5% | 1.32 | 3.09 | Activity index (Pseudomonas aeruginosa [36]): 3.11; Activity index (Pseudomonas aeruginosa [37]): 3.11; Activity_index (Staphylococcus aureus [16]): inactive; Activity_index (Serratia marcescens [46]): inactive; Activity index (Pseudomonas aeruginosa [40]): 3.11; Activity index (Klebsiella pneumoniae [41]): 3.09; Activity_index (Staphylococcus aureus [27]): inactive; Activity_index (Staphylococcus aureus [30]): inactive; Activity_index (Staphylococcus aureus [33]): inactive |
| Dimethylstannanediyl bis 2-(4-methoxy-2-nitrophenylcarbamoyl)benzoate | 1.33 | inactive | 55.6% | 48.9% | 13.3 mm | inactive | 1.77 mm | 6.65 | Dose-dependent effect | 51.6% | 51.2% | 53.4% | 62.3% | 13.7 mm | 25.2 mm | inactive | 48.4% | 54.7% | 1.8 | 4.2 | Activity_index (Streptococcus pyogenes [1]): inactive; Activity_index (Pseudomonas aeruginosa [3]): inactive; Activity_index (Streptococcus pyogenes [8]): inactive; Activity_index (Escherichia coli [11]): inactive; Activity_index (Streptococcus pyogenes [14]): inactive; Activity_index (Serratia marcescens [46]): inactive; Activity_index (Escherichia coli [18]): inactive; Activity index (Klebsiella pneumoniae [41]): 4.2; Activity_index (Streptococcus pyogenes [29]): inactive; Activity index (Escherichia coli [44]): 0.88; Activity_index (Escherichia coli [32]): inactive |
